Laboratory results taken from patent US9505745B2, “Enhancer of zeste homolog 2 inhibitors” (GlaxoSmithKline Intellectual Property (No.2) Limited, priority 2013, dated 2016).
Counter-ions that a name gives are not always drawn.

Key:
[1] = biological target: T1, EZH2 within the PRC2 complex (Homo sapiens (Human), UniProt Q15910); test: EZH2 methyltransferase SPA, mononucleosome substrate (Assay Protocol 1); type: biochemical; details: HeLa mononucleosome substrate, 3H-SAM, ≦10 nM approaches limit of detection
Experimental: Compounds contained herein were evaluated for their ability to inhibit the methyltransferase activity of EZH2 within the PRC2 complex. Human PRC2 complex was prepared by co-expressing each of the 5 member proteins (FLAG-EZH2, EED, SUZ12, RbAp48, AEBP2) in Sf9 cells followed by co-purification. Enzyme activity was measured in a scintillation proximity assay (SPA) where a tritiated methyl group is transferred from 3H-SAM to a lysine residue on Histone H3 of a mononucleosome, purified from HeLa cells. Mononucleosomes were captured on SPA beads and the resulting signal is read on a ViewLux plate reader.
(§1) Part A. Compound Preparation
• 1. Prepare 10 mM stock of compounds from solid in 100% DMSO. • 2. Set up an 11-point serial dilution (1:3 dilution, top concentration 10 mM) in 100% DMSO for each test compound in a 384 well plate leaving columns 6 and 18 for DMSO controls. • 3. Dispense 100 nL of compound from the dilution plate into reaction plates (Grenier Bio-One, 384-well, Cat#784075). Part B. Reagent Preparation Prepare the following solutions: • 1. 50 mM Tris-HCl, pH 8: Per 1 L of base buffer, combine 1 M Tris-HCl, pH 8 (50 mL) and distilled water (950 mL). • 2. 1× Assay Buffer: Per 10 mL of 1× Assay Buffer, combine 50 mM Tris-HCl, pH 8 (9958 uL), 1 M MgCl2 (20 uL), 2 M DTT (20 uL), and 10% Tween-20 (2 uL) to provide a final concentration of 50 mM Tris-HCl, pH 8, 2 mM MgCl2, 4 mM DTT, 0.002% Tween-20. • 3. 2× Enzyme Solution: Per 10 mL of 2× Enzyme Solution, combine 1× Assay Buffer and PRC2 complex to provide a final enzyme concentration of 10 nM. • 4. SPA Bead Suspension: Per 1 mL of SPA Bead Suspension, combine PS-PEI coated LEADSeeker beads (40 mg) and H2O (1 mL) to provide a final concentration of 40 mg/mL. • 5. 2× Substrate Solution: Per 10 mL of 2× Substrate Solution, combine 1× Assay Buffer (9728.55 uL), 800 ug/mL mononucleosomes (125 uL), 1 mM cold SAM (4 uL), and 7.02 uM 3H-SAM (142.45 uL; 0.55 mCi/mL) to provide a final concentration of 5 ug/mL nucleosomes, 0.2 uM cold SAM, and 0.05 uM 3H-SAM. • 6. 2.67× Quench/Bead Mixture: Per 10 mL of 2.67× Quench/Bead Mixture, combine ddH2O (9358 uL), 10 mM cold SAM (267 uL), 40 mg/mL Bead Suspension (375 uL) to provide a final concentration of 100 uM cold SAM and 0.5 mg/mL SPA beads. Part C. Assay Reaction in 384-well Grenier Bio-One Plates Compound Addition • 1. Dispense 100 nL/well of 100× Compound to test wells (as noted above). • 2. Dispense 100 nL/well of 100% DMSO to columns 6 & 18 for high and low controls, respectively. Assay • 1. Dispense 5 uL/well of 1× Assay Buffer to column 18 (low control reactions). • 2. Dispense 5 uL/well of 2× Enzyme Solution to columns 1-17, 19-24. • 3. Spin assay plates for ˜1 min at 500 rpm. • 4. Stack the assay plates, covering the top plate. • 5. Incubate the compound/DMSO with the enzyme for 30 min at room temperature. • 6. Dispense 5 uL/well of 2× Substrate Solution to columns 1-24. • 7. Spin assay plates for ˜1 min at 500 rpm. • 8. Stack the assay plates, covering the top plate. • 9. Incubate the assay plates at room temperature for 1 hour. Quench/Bead Addition • 1. Dispense 5 uL/well of the 3× Quench/Bead Mixture to columns 1-24. • 2. Seal the top of each assay plate with adhesive TopSeal. • 3. Spin assay plates for ˜1 min at 500 rpm. • 4. Equilibrate the plates for >20 min. Read plates • 1. Read the assay plates on the Viewlux Plate Reader utilizing the 613 nm emission filter with a 300 s read time.
Reagent addition can be done manually or with automated liquid handler. • The final DMSO concentration in this assay is 1%. • The positive control is in column 6; negative control is in column 18. • Final starting concentration of compounds is 100 µM. Results
(§2) Percent inhibition was calculated relative to the DMSO control for each compound concentration and the resulting values were fit using standard IC50 fitting parameters within the ABASE data fitting software package.

[2] = biological target: T1, EZH2 within the PRC2 complex; test: EZH2 methyltransferase SPA, biotinylated histone H3K27 peptide substrate (Assay Protocol 2); type: biochemical; details: 3H-SAM, ≦10 nM approaches limit of detection
Experimental: Compounds contained herein were evaluated for their ability to inhibit the methyltransferase activity of EZH2 within the PRC2 complex. Human PRC2 complex was prepared by co-expressing each of the 5 member proteins (FLAG-EZH2, EED, SUZ12, RbAp48, AEBP2) in Sf9 cells followed by co-purification. Enzyme activity was measured in a scintillation proximity assay (SPA) where a tritiated methyl group is transferred from 3H-SAM to a lysine residue on a biotinylated, unmethylated peptide substrate derived from histone H3. The peptides were captured on streptavidin-coated SPA beads and the resulting signal was read on a ViewLux plate reader.
as §1
• 4. Prepare 10 mM stock of compounds from solid in 100% DMSO. • 5. Set up an 11-point serial dilution (1:4 dilution, top concentration 10 mM) in 100% DMSO for each test compound in a 384 well plate leaving columns 6 and 18 for DMSO controls. • 6. Dispense 10 nL of compound from the dilution plate into reaction plates (Corning, 384-well polystyrene NBS, Cat#3673). Part B. Reagent Preparation Prepare the following solutions: • 7. 1× Base Buffer, 50 mM Tris-HCl, pH 8, 2 mM MgCl2: Per 1 L of base buffer, combine 1 M Tris-HCl, pH 8 (50 mL), 1 M MgCl2 (2 mL), and distilled water (948 mL). • 8. 1× Assay Buffer: Per 10 mL of 1× Assay Buffer, combine 1× Base Buffer (9.96 mL), 1 M DTT (40 uL), and 10% Tween-20 (1 uL) to provide a final concentration of 50 mM Tris-HCl, pH 8, 2 mM MgCl2, 4 mM DTT, 0.001% Tween-20. • 9. 2× Enzyme Solution: Per 10 mL of 2× Enzyme Solution, combine 1× Assay Buffer (9.99 mL) and 3.24 uM EZH2 5 member complex (6.17 uL) to provide a final enzyme concentration of 1 nM. • 10. SPA Bead Solution: Per 1 mL of SPA Bead Solution, combine Streptavidin coated SPA beads (PerkinElmer, Cat#RPNQ0261, 40 mg) and 1× Assay Buffer (1 mL) to provide a working concentration of 40 mg/mL. • 11. 2× Substrate Solution: Per 10 mL of 2× Substrate Solution, combine 40 mg/mL SPA Bead Solution (375 uL), 1 mM biotinylated histone H3K27 peptide (200 uL), 12.5 uM 3H-SAM (240 uL; 1 mCi/mL), 1 mM cold SAM (57 uL), and 1× Assay Buffer (9.13 mL) to provide a final concentration of 0.75 mg/mL SPA Bead Solution, 10 uM biotinylated histone H3K27 peptide, 0.15 uM 3H-SAM (˜12 uCi/mL 3H-SAM), and 2.85 uM cold SAM. • 12. 2.67× Quench Solution: Per 10 mL of 2.67× Quench Solution, combine 1× Assay Buffer (9.73 mL) and 10 mM cold SAM (267 uL) to provide a final concentration of 100 uM cold SAM. Part C. Assay Reaction in 384-well Grenier Bio-One Plates Compound Addition • 3. Stamp 10 nL/well of 1000× Compound to test wells (as noted above). • 4. Stamp 10 nL/well of 100% DMSO to columns 6 & 18 (high and low controls, respectively). Assay • 10. Dispense 5 uL/well of 1× Assay Buffer to column 18 (low control reactions). • 11. Dispense 5 uL/well of 2× Substrate Solution to columns 1-24 (note: substrate solution should be mixed to ensure homogeneous bead suspension before dispensing into matrix reservoir). • 12. Dispense 5 uL/well of 2× Enzyme Solution to columns 1-17, 19-24. • 13. Incubate the reaction for 60 min at room temperature. Quench • 5. Dispense 6 uL/well of the 2.67× Quench Solution to columns 1-24. • 6. Seal assay plates and spin for ˜1 min at 500 rpm. • 7. Dark adapt plates in the ViewLux instrument for 15-60 min. Read plates • 2. Read the assay plates on the Viewlux Plate Reader utilizing the 613 nm emission filter or clear filter (300 s exposure). Reagent addition can be done manually or with automated liquid handler. Results
as §2

T1 sequence (Q15910 whole entry): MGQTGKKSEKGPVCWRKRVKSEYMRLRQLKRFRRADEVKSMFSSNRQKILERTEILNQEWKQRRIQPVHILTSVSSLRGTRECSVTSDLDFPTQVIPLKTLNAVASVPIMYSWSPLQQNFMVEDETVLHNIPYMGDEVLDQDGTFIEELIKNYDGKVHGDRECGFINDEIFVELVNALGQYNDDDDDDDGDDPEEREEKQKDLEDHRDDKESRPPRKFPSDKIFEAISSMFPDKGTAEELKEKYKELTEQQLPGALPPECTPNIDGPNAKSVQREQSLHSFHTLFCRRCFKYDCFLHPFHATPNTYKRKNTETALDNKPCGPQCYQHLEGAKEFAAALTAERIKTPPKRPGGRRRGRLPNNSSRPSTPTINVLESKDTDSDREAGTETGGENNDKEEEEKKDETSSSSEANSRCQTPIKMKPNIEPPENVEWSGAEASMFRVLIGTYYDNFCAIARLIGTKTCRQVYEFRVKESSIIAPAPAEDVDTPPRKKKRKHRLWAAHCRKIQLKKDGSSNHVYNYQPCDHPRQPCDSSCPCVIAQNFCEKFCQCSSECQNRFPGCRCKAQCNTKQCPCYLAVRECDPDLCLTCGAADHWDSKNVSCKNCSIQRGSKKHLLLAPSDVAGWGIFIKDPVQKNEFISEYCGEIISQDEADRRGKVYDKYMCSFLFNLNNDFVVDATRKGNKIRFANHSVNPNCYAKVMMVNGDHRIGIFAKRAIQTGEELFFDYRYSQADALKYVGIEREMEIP
T1 sequence (O75530 whole entry partner): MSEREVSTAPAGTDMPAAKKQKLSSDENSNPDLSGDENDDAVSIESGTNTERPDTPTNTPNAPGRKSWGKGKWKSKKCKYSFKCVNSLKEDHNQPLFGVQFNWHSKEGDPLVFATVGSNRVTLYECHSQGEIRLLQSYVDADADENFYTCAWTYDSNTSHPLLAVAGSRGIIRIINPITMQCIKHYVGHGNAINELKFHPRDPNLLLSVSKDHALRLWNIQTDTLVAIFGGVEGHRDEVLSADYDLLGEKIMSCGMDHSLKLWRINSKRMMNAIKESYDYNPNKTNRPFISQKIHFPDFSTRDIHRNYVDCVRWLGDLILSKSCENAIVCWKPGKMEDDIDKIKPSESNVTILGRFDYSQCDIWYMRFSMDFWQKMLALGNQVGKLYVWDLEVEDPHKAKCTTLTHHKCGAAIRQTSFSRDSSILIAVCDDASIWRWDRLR
T1 sequence (Q15022 whole entry partner): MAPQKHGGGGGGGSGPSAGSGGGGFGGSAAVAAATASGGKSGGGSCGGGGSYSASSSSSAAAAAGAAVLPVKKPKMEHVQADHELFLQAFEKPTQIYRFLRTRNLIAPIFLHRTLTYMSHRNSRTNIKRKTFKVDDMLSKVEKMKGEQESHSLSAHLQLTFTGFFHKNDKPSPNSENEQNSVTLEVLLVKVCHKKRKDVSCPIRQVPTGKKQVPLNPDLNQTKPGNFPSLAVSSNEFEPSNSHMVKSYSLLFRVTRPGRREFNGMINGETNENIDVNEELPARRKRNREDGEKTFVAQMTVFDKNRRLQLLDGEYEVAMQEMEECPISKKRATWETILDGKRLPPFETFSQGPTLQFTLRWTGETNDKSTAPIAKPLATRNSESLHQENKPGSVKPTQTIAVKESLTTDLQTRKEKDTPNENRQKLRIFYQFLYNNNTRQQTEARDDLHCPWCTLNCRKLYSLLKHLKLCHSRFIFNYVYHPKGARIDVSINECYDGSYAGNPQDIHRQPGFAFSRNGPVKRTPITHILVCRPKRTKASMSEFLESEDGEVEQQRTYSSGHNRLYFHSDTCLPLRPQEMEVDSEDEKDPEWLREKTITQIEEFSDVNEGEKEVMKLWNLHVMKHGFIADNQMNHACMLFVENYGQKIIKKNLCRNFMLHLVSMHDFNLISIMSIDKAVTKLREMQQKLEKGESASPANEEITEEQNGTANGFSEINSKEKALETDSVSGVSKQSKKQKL
T1 sequence (Q09028 whole entry partner): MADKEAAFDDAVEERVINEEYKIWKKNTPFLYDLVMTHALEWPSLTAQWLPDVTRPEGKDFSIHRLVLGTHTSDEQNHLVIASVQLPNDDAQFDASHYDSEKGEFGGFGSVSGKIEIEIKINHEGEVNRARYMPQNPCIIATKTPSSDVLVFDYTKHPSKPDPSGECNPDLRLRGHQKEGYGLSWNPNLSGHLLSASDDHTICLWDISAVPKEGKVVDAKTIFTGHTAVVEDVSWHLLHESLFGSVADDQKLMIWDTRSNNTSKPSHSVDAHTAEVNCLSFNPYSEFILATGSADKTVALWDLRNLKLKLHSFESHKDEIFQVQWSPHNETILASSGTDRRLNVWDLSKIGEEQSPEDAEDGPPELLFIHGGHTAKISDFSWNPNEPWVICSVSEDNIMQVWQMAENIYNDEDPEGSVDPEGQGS
T1 sequence (Q6ZN18 whole entry partner): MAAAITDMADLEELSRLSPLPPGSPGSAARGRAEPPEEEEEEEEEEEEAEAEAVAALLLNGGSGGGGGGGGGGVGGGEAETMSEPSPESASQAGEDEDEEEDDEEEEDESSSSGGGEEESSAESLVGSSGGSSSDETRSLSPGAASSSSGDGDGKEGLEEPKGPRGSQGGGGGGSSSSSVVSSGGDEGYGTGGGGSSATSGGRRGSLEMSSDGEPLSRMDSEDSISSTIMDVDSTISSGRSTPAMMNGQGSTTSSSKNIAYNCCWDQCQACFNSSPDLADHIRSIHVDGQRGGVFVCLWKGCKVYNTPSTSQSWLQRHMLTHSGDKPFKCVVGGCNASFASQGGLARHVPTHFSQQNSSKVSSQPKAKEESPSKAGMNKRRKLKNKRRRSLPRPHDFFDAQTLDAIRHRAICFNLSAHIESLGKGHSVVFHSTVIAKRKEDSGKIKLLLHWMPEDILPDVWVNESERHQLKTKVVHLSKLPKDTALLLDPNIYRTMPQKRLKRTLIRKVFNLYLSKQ

| Structure (SMILES) | IC50 [1] [nM] | IC50 [2] [nM] |
| --- | --- | --- |
| CCN(c1c(C)c(C(=O)NCc2c(C)cc(C)[nH]c2=O)nn1C)C1CCOCC1 [Example 14, N-[(4,6-dimethyl-2-oxo-1,2-dihydro-3-pyridinyl)methyl]-5-[ethyl(tetrahydro-2H-pyran-4-yl)amino]-1,4-dimethyl-1H-pyrazole-3-carboxamide] | 630 | 2000 |
| CCN(c1scc(C(=O)NCc2c(C(F)(F)F)cc(C)[nH]c2=O)c1C)C1CCOCC1 [Example 15, 5-(Ethyl(tetrahydro-2H-pyran-4-yl)amino)-4-methyl-N-((6-methyl-2-oxo-4-(trifluoromethyl)-1,2-dihydropyridin-3-yl)methyl)thiophene-3-carboxamide] | 79 | 630 |
| CCN(c1c(Cl)sc(C(=O)NCc2c(C)cc(C)[nH]c2=O)c1C)C1CCOCC1 [Example 3, 5-Chloro-N-((4,6-dimethyl-2-oxo-1,2-dihydropyridin-3-yl)methyl)-4-(ethyl(tetrahydro-2H-pyran-4-yl)amino)-3-methylthiophene-2-carboxamide] | 100 | 200 |
| Cc1cc(C)c(CNC(=O)c2csc(C(C)N3CCOCC3)c2C)c(=O)[nH]1 (centres unmarked) [Example 26, N-((4,6-dimethyl-2-oxo-1,2-dihydropyridin-3-yl)methyl)-4-methyl-5-(1-morpholinoethyl)thiophene-3-carboxamide] | 630 | 5010 |
| CCN(c1scc(C(=O)NCc2c(C)cc(C)[nH]c2=O)c1C)C1CCOCC1 [Example 6, N-((4,6-dimethyl-2-oxo-1,2-dihydropyridin-3-yl)methyl)-5-(ethyl(tetrahydro-2H-pyran-4-yl)amino)-4-methylthiophene-3-carboxamide] | 16 | 16 |
| CCN(c1scc(C(=O)NCc2c(C)cc(C)[nH]c2=O)c1C)C1CCN(C(=O)OC(C)(C)C)CC1 [Example 11, tert-Butyl 4-((4-(((4,6-dimethyl-2-oxo-1,2-dihydropyridin-3-yl)methyl)carbamoyl)-3-methylthiophen-2-yl)(ethyl)amino)piperidine-1-carboxylate] | 16 | 20 |
| CCC(=C1CCNCC1)c1scc(C(=O)NCc2c(C)cc(C)[nH]c2=O)c1C [Example 48, N-((4,6-dimethyl-2-oxo-1,2-dihydropyridin-3-yl)methyl)-4-methyl-5-(1-(piperidin-4-ylidene)propyl)thiophene-3-carboxamide] | – | ≤ 10 |
| CCN(c1sc(C#N)c(C(=O)NCc2c(C)cc(C)[nH]c2=O)c1C)[C@H]1CC[C@H](N(C)C)CC1 [Example 51, 2-Cyano-N-((4,6-dimethyl-2-oxo-1,2-dihydropyridin-3-yl)methyl)-5-(((trans)-4-(dimethylamino)cyclohexyl)(ethyl)amino)-4-methylthiophene-3-carboxamide] | – | 25 |
| Cc1cc(C)c(CNC(=O)c2csc(N3CCCC3C3CCNCC3)c2C)c(=O)[nH]1 (centres unmarked) [Example 68, N-((4,6-dimethyl-2-oxo-1,2-dihydropyridin-3-yl)methyl)-4-methyl-5-(2-(piperidin-4-yl)pyrrolidin-1-yl)thiophene-3-carboxamide hydrochloride] | – | 79 |
| CCC(c1scc(C(=O)NCc2c(C)cc(C)[nH]c2=O)c1C)[C@H]1CC[C@@H](N(C)C)CC1 (single isomer, unassigned; (+)) [Example 46, (+)-N-((4,6-Dimethyl-2-oxo-1,2-dihydropyridin-3-yl)methyl)-5-(1-((cis)-4-(dimethylamino)cyclohexyl)propyl)-4-methylthiophene-3-carboxamide] | – | 316 |
| CCC(c1scc(C(=O)NCc2c(C)cc(C)[nH]c2=O)c1C)[C@H]1CC[C@H](N)CC1 (stereo partly drawn) [Example 43, 5-(1-((trans)-4-Aminocyclohexyl)propyl)-N-((4,6-dimethyl-2-oxo-1,2-dihydropyridin-3-yl)methyl)-4-methylthiophene-3-carboxamide] | – | 16 |
